Test results as given in paper PMC11067372, “Evaluation of the antiplasmodial efficacy of synthetic 2,5-diphenyloxazole analogs of compounds naturally derived from Oxytropis lanata” (International Journal for Parasitology: Drugs and Drug …, 2024).

Experiments:
P. falciparum 3D7 [1] = experiment: In vitro inhibition of P. falciparum 3D7 (SYBR Green I-based fluorescence assay); format: cell-based, Plasmodium falciparum; set-up: logIC50: unit not given here; conditions: for IC80 / IC50: Plasmodium falciparum; for IC80: concentration used in the 72-h exposure assay; for logIC50: base-10 log-transformed IC50 against P. falciparum 3D7
Procedure: (§1) The cultures were maintained in an incubator under specific conditions: 37 °C under 5% CO2 and 5% O2.
(§2) The D-sorbitol method (CAS: 50-70-4, Wako, Osaka, Japan) was employed to synchronize parasites, resulting in the attainment of ≥90% ring-stage parasites. These synchronized parasites were then utilized for the experiments within a 2-h window. The assay was performed as follows. First, 50 μL of synchronized parasites with 0.5% parasitemia and 2% hematocrit were added to individual wells of a 96-well plate. Then, 50 μL of the test compounds was introduced to each well. […] Wells containing only test compounds and erythrocytes were included for background correction. […] After the designated incubation time, 100 μL of lysis buffer containing 0.02% (v/v) SYBR Green I was added to each well, the contents of the well were mixed by pipetting, and the plate was incubated in the dark at room temperature for 2 h. […] This assay was repeated four times at each concentration, and the resulting inhibitory values represent the average from three independent trials.
(§3) The IC50 or CC50 values were determined from three independent experiments by plotting the logarithmic concentration of the compound against the percent parasite inhibition or cell growth inhibition, respectively. Nonlinear regression analysis was conducted using GraphPad Prism 10 (GraphPad Software, Inc., La Jolla, CA, USA). Comparisons between groups were evaluated using either one-way or two-way ANOVA followed by Tukey's or Fisher's multiple comparisons tests. […] The meaning of each symbol is specified in the corresponding figure legend alongside the name of the employed test.

P. falciparum K1 = experiment: In vitro inhibition of P. falciparum K1 (SYBR Green I-based fluorescence assay); format: cell-based; conditions: Plasmodium falciparum; multidrug-resistant strain K1; 72 h incubation; average ± SD, three independent experiments; read-out: IC50 P. falciparum K1
Procedure: as §1, §2, §3

P. falciparum 3D7 [2] = experiment: IC50 speed assay (24, 48, 72 h); format: cell-based, Plasmodium falciparum; conditions: P. falciparum 3D7; for Speed of action (IC50 speed assay): IC50 at 24, 48, 72 h compared; for IC50: Plasmodium falciparum
Procedure: as §2

P. falciparum 3D7 [3] = experiment: 72-h compound exposure assay with wash-unwashed procedure (up to 144 h); format: cell-based, Plasmodium falciparum; conditions: for Parasitemia levels at 48 and 72 h compared to untreated controls: compound at IC80; for Cidal versus static effect: compound at IC80, up to 144 h, washed and unwashed groups
Procedure: In the 72-h compound exposure assay with the compound wash-unwashed procedure, parasites at the ring stage with 0.5% parasitemia and 2% hematocrit were employed. For this evaluation, Compounds 31 and 32 were used at concentrations equivalent to their respective IC80 values (Compound 31: 18.08 μM; hill slope 2.10, Compound 32: 11.74 μM; hill slope 2.02). These groups were considered the treated groups, while cultures with only complete medium served as untreated groups. The IC80 was used to allow observations of parasite morphology under incomplete inhibition, the potential emergence of abnormal morphologies, and the state of parasites following compound removal. This experimental setup was repeated three times for each concentration and time point. Thin blood smears were prepared from each treatment group at 1, 24, 48, or 72 h post incubation. In different culture sets, after 72 h of incubation, the medium was exchanged, and the compounds were subjected to three washes using fresh complete medium. Incubation was then continued either in the presence (unwashed group) or absence (washed group) of the test compounds for up to 144 h. Thin blood smears were consecutively prepared from each treatment group at 96, 120, and 144 h. The smears were visualized using a BZ-900 all-in-one microscope (Keyence BioRevo, Tokyo, Japan). Parasitemia levels were calculated by counting the number and determining the ratio of infected erythrocytes relative to the number of uninfected erythrocytes.

P. yoelii 17XNL = format: in vivo; conditions: C57BL/6 mice, P. yoelii 17XNL; for Parasitemia compared to the untreated control group: 20 mg/kg daily over 10 days; for Body weight or hematocrit levels / Mortality / Peak of parasitemia, trial 1 / Peak of parasitemia, trial 2: 20 mg/kg i.p. once daily for ten days; for Peak of parasitemia, trial 1: untreated 21.7%; for Peak of parasitemia, trial 2: untreated 28.3%
Procedure: Male C57BL/6 mice, aged eight weeks, were obtained from Japan CLEA (Tokyo, Japan) and housed with six per cage in each group. These mice were kept under conditions of 24 °C, 50% relative humidity, and a light-dark cycle of 8 a.m. to 8 p.m. Access to drinking water and food (CLEA Rodent Diet CE-2; Japan CLEA, Tokyo, Japan) was unrestricted. Prior to experimentation, P. yoelii 17XNL was recovered from cryopreserved erythrocyte stocks via passage in mice. […]. Parasitemia levels were evaluated […] by collecting 2 μL of blood from the mouse tail for thin blood smear preparation. Treatment was initiated upon reaching a parasitemia level of 1%. […]. Parasitemia in infected mice was observed daily by preparing Giemsa-stained thin blood smears (up to 30 dpi). Hematocrit levels were measured every other day using a Celltac-α MEK-6550 (Nihon Kohden, Tokyo, Japan), with 10 μL of blood collected from the mouse tail for each assessment. The animals were handled and treated in accordance with the Guide for the Care and Use of Laboratory Animals by the Ministry of Education, Culture, Sports, Science, and Technology, Japan. Ethical permission for the animal experiment protocols was secured under permit numbers 21–35 and 23–90 from the ethical committee of Obihiro University of Agriculture and Veterinary Medicine.
The median point within this range was selected to maintain a balance between efficacy and safety. Furthermore, a modified Peter's suppression test was utilized to assess the efficacy of antimalarial drugs ([Ager, 1984]; [Peters et al., 1975]). The treatment and observation period were initially set for 4 days. […] […]. […] These findings highlight the effect of the 20 mg/kg/day dosage of Compounds 31 and 32 in reducing parasitemia without causing side effects.

[4] = Table S2, P. falciparum 3D7, value used for SAR analysis, read-out: IC50
[5] = chloroquine-sensitive strain 3D7, 72 h incubation, average ± SD, three independent experiments, read-out: IC50 P. falciparum 3D7
[6] = 24 h incubation, read-out: IC50 24 h
[7] = 48 h incubation, read-out: IC50 48 h
[8] = 72 h incubation, read-out: IC50 72 h

## COc1cccc(-c2ncc(-c3ccccc3O)o2)c1OC [Compound 31, 2-(2′,3′-dimethoxyphenyl)-5-(2″-hydroxyphenyl)oxazole]
P. falciparum 3D7 [1]; P. falciparum 3D7
  IC80: 18.1 µM
P. falciparum 3D7 [1]; [4]
  IC50: 8.37 µM
P. falciparum 3D7 [1]; [5]
  IC50: 8.37 ± 1.28 µM
P. falciparum 3D7 [1]; Table S2
  logIC50: 0.9226
P. falciparum K1
  IC50: 2.66 ± 1.15 µM
P. falciparum 3D7 [2]
  Speed of action (IC50 speed assay): slow-acting
P. falciparum 3D7 [2]; [6]
  IC50: 45.2 ± 10.6 µM
P. falciparum 3D7 [2]; [7]
  IC50: 18.8 ± 1.86 µM
P. falciparum 3D7 [2]; [8]
  IC50: 8.37 ± 1.28 µM
P. falciparum 3D7 [3]
  Parasitemia levels at 48 and 72 h compared to untreated controls: significantly lower parasitemia levels
  Cidal versus static effect: possible cidal effect
P. yoelii 17XNL
  Parasitemia compared to the untreated control group: significant reduction in parasitemia
  Body weight or hematocrit levels: nor were reductions in body weight or hematocrit levels observed
  Mortality: no instances of mortality
  Peak of parasitemia, trial 1: 12.7%
  Peak of parasitemia, trial 2: 15.8%

## COc1cccc(-c2ncc(-c3ccccc3OCc3ccccc3)o2)c1OC [Compound 32, 2-(2′,3′-dimethoxyphenyl)-5-(2″-benzyloxyphenyl)oxazole]
P. falciparum 3D7 [1]; P. falciparum 3D7
  IC80: 11.7 µM
P. falciparum 3D7 [1]; [4]
  IC50: 6.25 µM
P. falciparum 3D7 [1]; [5]
  IC50: 6.25 ± 1.39 µM
P. falciparum 3D7 [1]; Table S2
  logIC50: 0.7961
P. falciparum K1
  IC50: 4.37 ± 1.7 µM
P. falciparum 3D7 [2]
  Speed of action (IC50 speed assay): slow-acting
P. falciparum 3D7 [2]; [6]
  IC50: 31.2 ± 4.13 µM
P. falciparum 3D7 [2]; [7]
  IC50: 33.4 ± 2.67 µM
P. falciparum 3D7 [2]; [8]
  IC50: 6.25 ± 1.39 µM
P. falciparum 3D7 [3]
  Parasitemia levels at 48 and 72 h compared to untreated controls: significantly lower parasitemia levels
  Cidal versus static effect: predominantly static effect
P. yoelii 17XNL
  Parasitemia compared to the untreated control group: significant reduction in parasitemia
  Body weight or hematocrit levels: nor were reductions in body weight or hematocrit levels observed
  Mortality: no instances of mortality
  Peak of parasitemia, trial 1: 12.7%
  Peak of parasitemia, trial 2: 14.0%
